Measured values published in article PMC10384408, “Anticancer Tungstenocenes with a Diverse Set of (O,O–), (O,S–) and (O,N–) Chelates—A Detailed Biological Study Using an Improved Evaluation via 3D Spheroid Models” (Pharmaceutics, 2023).

How the values were obtained:
[1] = tested on: SW480 (colon carcinoma) cells; assay: MTT cytotoxicity assay, SW480 monolayer; assay type: cell-based, human; conditions: exposure time 96 h, mean ± SD
Method in brief: (§1)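 Monolayer cells seeded at 1 × 10^3 (CH1/PA-1), 2 × 10^3 (SW480), 3 × 10^3 (A549) or 7 × 10^3 (IMR-90) per well, preincubated 24 h, then exposed to serially diluted drug for 96 h. Viability by MTT (4 h), absorbance 550 nm (690 nm reference); IC50 interpolated from concentration-effect curves relative to untreated controls, ≥3 independent experiments.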

[2] = tested on: IMR-90 human lung fibroblasts; assay: MTT cytotoxicity assay, IMR-90 fibroblasts; assay type: cell-based; conditions: exposure time 96 h, mean ± SD
Method in brief: as §1

[3] = tested on: HCT116 cells; assay: Resazurin assay, HCT116 2D monolayer; assay type: cell-based, human; conditions: 96 h
Method in brief: (§2)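 Monolayers seeded at 2 × 10^3 (HCT116, HT29) or 4 × 10^3 (MCF-7) cells per well and dosed with serial compound dilutions after 24 h. After 96 h exposure, resazurin added for 4 h; resorufin fluorescence read at 530 nm with 620 nm reference, cell-free blanks subtracted.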

[4] = tested on: HCT116 multicellular tumor spheroids; assay: Resazurin assay, HCT116 3D spheroids; assay type: cell-based, human; conditions: 96 h; for IC50: spheroids
Method in brief: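 Spheroids formed from 400 HCT116, 400 HT29 or 800 MCF-7 cells in ultra-low attachment wells over 96 h, then exposed to serially diluted compounds for 96 h. Resazurin added with 12 h incubation; resorufin fluorescence read at 530 nm (reference 620 nm).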

[5] = tested on: HT29 cells; assay: Resazurin assay, HT29 2D monolayer; assay type: cell-based, human; conditions: 96 h
Method in brief: as §2

[6] = tested on: HCT116, HT29 and MCF-7 cell lines; assay: ROS detection (DCFH-DA assay); assay type: cell-based, human; conditions: 2, 20, 100 and 200 µM, 2 h
Method in brief: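 Cells loaded with 25 µM DCFH-DA in HBSS (1% FBS) for 45 min at 37 °C in the dark, washed, then exposed to compounds at 2, 20, 100 and 200 µM in phenol-red-free MEM (1% FBS), in triplicate. tert-Butylhydroperoxide was the positive control; fluorescence (ex 485, em 516 nm) read every 10 min over 2 h.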

[7] = tested on: HCT116 cells; assay: Annexin V-FITC/PI apoptosis assay, HCT116; assay type: cell-based, human; conditions: HCT116, 24 h; for ∑apoptotic cells [%]: sum of early and late
[8] = tested on: HT29 cells; assay: Annexin V-FITC/PI apoptosis assay, HT29; conditions: HT29, 24 h; for ∑apoptotic cells [%]: sum of early and late
[9] = tested on: MCF-7 cells; assay: Annexin V-FITC/PI apoptosis assay, MCF-7; conditions: MCF-7, 24 h; for ∑apoptotic cells [%]: sum of early and late

Structure (SMILES): F[P-](F)(F)(F)(F)F.[O-]c1c(-c2ccc(Cl)cc2)oc2ccccc2c1=S.[W+4].c1cc[cH-]c1.c1cc[cH-]c1 [Compound 4, Bis(η^5-cyclopentadienyl)[2-(4-chlorophenyl)-3-(oxo-κO)-4(H)-chromen-4-thionato-κS]tungsten(IV) hexafluorophosphate]
- IC50 [1]: 2.4 ± 0.5 µM
- IC50 [2]: 11 ± 2 µM
- IC50 [3]: 6 ± 0.9 µM
- ratio 3D/2D of IC50 values, HCT116 [4]: 2.5
- IC50 [4]: 15 ± 4 µM
- IC50 [5]: 5.5 ± 1 µM
- intracellular ROS levels [6]: concentration-dependent anti-oxidative properties
- early apoptotic cells [%] AV+ / PI- ([7]; 2 µM): 2.3 ± 0.0%
- late apoptotic cells [%] AV+ / PI+ ([7]; 2 µM): 8.0 ± 6.2%
- necrotic cells [%] AV- / PI+ ([7]; 2 µM): 2.4 ± 1.5%
- viable cells [%] AV- / PI- ([7]; 2 µM): 87.3 ± 7.8%
- ∑apoptotic cells [%] ([7]; 2 µM): 10.3%
- early apoptotic cells [%] AV+ / PI- ([7]; 20 µM): 1.9 ± 0.4%
- late apoptotic cells [%] AV+ / PI+ ([7]; 20 µM): 31.1 ± 4.7%
- necrotic cells [%] AV- / PI+ ([7]; 20 µM): 11.5 ± 1.2%
- viable cells [%] AV- / PI- ([7]; 20 µM): 55.5 ± 4.8%
- early apoptotic cells [%] AV+ / PI- ([8]; 2 µM): 3.7 ± 3.2%
- late apoptotic cells [%] AV+ / PI+ ([8]; 2 µM): 4.8 ± 1.3%
- necrotic cells [%] AV- / PI+ ([8]; 2 µM): 5.4 ± 5.0%
- viable cells [%] AV- / PI- ([8]; 2 µM): 86.2 ± 3.1%
- ∑apoptotic cells [%] ([8]; 2 µM): 8.5%
- early apoptotic cells [%] AV+ / PI- ([8]; 20 µM): 16.8 ± 5.2%
- late apoptotic cells [%] AV+ / PI+ ([8]; 20 µM): 19.5 ± 2.0%
- necrotic cells [%] AV- / PI+ ([8]; 20 µM): 13.3 ± 5.1%
- viable cells [%] AV- / PI- ([8]; 20 µM): 50.4 ± 4.1%
- early apoptotic cells [%] AV+ / PI- ([9]; 2 µM): 1.0 ± 0.8%
- late apoptotic cells [%] AV+ / PI+ ([9]; 2 µM): 3.4 ± 1.2%
- necrotic cells [%] AV- / PI+ ([9]; 2 µM): 1.8 ± 0.0%
- viable cells [%] AV- / PI- ([9]; 2 µM): 93.9 ± 2.1%
- ∑apoptotic cells [%] ([9]; 2 µM): 4.4%
- early apoptotic cells [%] AV+ / PI- ([9]; 10 µM): 1.2 ± 0.5%
- late apoptotic cells [%] AV+ / PI+ ([9]; 10 µM): 12.0 ± 2.0%
- necrotic cells [%] AV- / PI+ ([9]; 10 µM): 11.7 ± 4.7%
- viable cells [%] AV- / PI- ([9]; 10 µM): 75.2 ± 2.2%
- ∑apoptotic cells [%] ([9]; 10 µM): 13.2%
- early apoptotic cells [%] AV+ / PI- ([9]; 20 µM): 1.0 ± 0.4%
- late apoptotic cells [%] AV+ / PI+ ([9]; 20 µM): 15.1 ± 3.3%
- necrotic cells [%] AV- / PI+ ([9]; 20 µM): 33.8 ± 14.5%
- viable cells [%] AV- / PI- ([9]; 20 µM): 50.2 ± 10.8%
- early apoptotic cells [%] AV+ / PI- ([9]; 50 µM): 0.0 ± 0.0%
- late apoptotic cells [%] AV+ / PI+ ([9]; 50 µM): 43.4 ± 3.7%
- necrotic cells [%] AV- / PI+ ([9]; 50 µM): 51.5 ± 10.3%
- viable cells [%] AV- / PI- ([9]; 50 µM): 5.0 ± 6.6%
- ∑apoptotic cells [%] ([9]; 50 µM): 43.4%

Structure (SMILES): CCc1occc(=S)c1[O-].F[P-](F)(F)(F)(F)F.[W+4].c1cc[cH-]c1.c1cc[cH-]c1 [Compound 10, Bis(η^5-cyclopentadienyl)[2-ethyl-3-(oxo-κO)-4-(1H)-pyran-4-thionato-κS] tungsten(IV) hexafluorophosphate]
- IC50 [1]: 13 ± 1 µM
- IC50 [2]: 114 ± 33 µM
- IC50 [3]: 42 ± 3 µM
- ratio 3D/2D of IC50 values, HCT116 [4]: 1.6
- IC50 [4]: 69 ± 12 µM
- IC50 [5]: 54 ± 2 µM
- intracellular ROS levels [6]: relevant ROS generation
- early apoptotic cells [%] AV+ / PI- ([7]; 200 µM): 3.8 ± 3.2%
- late apoptotic cells [%] AV+ / PI+ ([7]; 200 µM): 4.3 ± 3.6%
- necrotic cells [%] AV- / PI+ ([7]; 200 µM): 2.4 ± 0.7%
- viable cells [%] AV- / PI- ([7]; 200 µM): 89.6 ± 7.5%
- ∑apoptotic cells [%] ([7]; 200 µM): 8.0%
- early apoptotic cells [%] AV+ / PI- ([8]; 200 µM): 3.1 ± 2.8%
- late apoptotic cells [%] AV+ / PI+ ([8]; 200 µM): 5.1 ± 5.2%
- necrotic cells [%] AV- / PI+ ([8]; 200 µM): 2.3 ± 0.9%
- viable cells [%] AV- / PI- ([8]; 200 µM): 89.5 ± 8.5%
- ∑apoptotic cells [%] ([8]; 200 µM): 8.2%
- early apoptotic cells [%] AV+ / PI- ([9]; 200 µM): 5.5 ± 3.2%
- late apoptotic cells [%] AV+ / PI+ ([9]; 200 µM): 46.3 ± 3.2%
- necrotic cells [%] AV- / PI+ ([9]; 200 µM): 32.4 ± 12.3%
- viable cells [%] AV- / PI- ([9]; 200 µM): 15.7 ± 6.0%
